Data as given in patent US10167279B2 (NOVARTIS AG, priority 2014, dated 2019).

Each compound was assayed against C-Raf FL (Homo sapiens (Human), UniProt P04049, Y340E/Y341E) (assay: In vitro Raf activity determination (Alpha Screen, phospho-MEK), C-Raf FL (full length, Y340E/Y341E)). Settings: ATP 1 μM; 60 min pre-incubation; 1 hour reaction; column head does not say FL or TR.
Sequence of C-Raf FL (P04049 whole entry Y340E/Y341E): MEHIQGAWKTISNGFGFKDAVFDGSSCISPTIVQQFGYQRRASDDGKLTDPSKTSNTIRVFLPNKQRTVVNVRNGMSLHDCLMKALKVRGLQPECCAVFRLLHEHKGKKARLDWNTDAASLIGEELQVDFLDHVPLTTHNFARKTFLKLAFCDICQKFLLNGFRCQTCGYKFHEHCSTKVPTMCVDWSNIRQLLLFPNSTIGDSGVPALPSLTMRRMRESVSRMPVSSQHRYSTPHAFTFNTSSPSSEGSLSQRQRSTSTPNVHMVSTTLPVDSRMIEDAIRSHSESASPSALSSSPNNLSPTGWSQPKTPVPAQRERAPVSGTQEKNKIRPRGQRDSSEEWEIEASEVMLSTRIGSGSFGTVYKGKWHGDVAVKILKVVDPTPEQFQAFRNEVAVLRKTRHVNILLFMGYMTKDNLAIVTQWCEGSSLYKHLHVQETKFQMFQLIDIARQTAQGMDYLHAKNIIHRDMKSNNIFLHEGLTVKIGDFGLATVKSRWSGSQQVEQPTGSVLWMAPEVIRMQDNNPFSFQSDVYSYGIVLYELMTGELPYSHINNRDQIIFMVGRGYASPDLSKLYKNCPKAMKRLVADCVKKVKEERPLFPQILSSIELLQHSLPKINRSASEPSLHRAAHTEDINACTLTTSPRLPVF
Sequence of C-Raf FL (P63104 whole entry partner): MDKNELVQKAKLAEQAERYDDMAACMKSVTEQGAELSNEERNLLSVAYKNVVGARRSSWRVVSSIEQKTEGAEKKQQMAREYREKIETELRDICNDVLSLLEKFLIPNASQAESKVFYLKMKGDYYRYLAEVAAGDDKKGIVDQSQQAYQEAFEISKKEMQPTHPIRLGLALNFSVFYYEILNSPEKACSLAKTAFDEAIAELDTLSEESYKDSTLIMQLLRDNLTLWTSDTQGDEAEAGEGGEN
Format: biochemical
In short: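 Read-out is AlphaScreen luminescence using rabbit anti-p-MEK with protein A beads after EDTA stop, with IC50 fitted by non-linear regression. Reaction: Sf9-derived C-Raf plus biotinylated E. coli MEK1 K97R substrate, pH 7.5 Tris/MgCl2/DTT buffer, compound preincubated 60 min at room temperature.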
Compound `Cc1ccc(NC(=O)c2ccnc(C(C)(C)C#N)c2)cc1-c1cc(OCCO)nc(C2CCOCC2O)c1` (stereo not drawn) [Example 246] has an IC50 of 6 nM.
`Cc1ccc(NC(=O)c2ccnc(C(F)(F)F)n2)cc1-c1cc(OCCO)nc(C2CCOCC2)c1` [Example 254, N-(3-(2-(2-hydroxyethoxy)-6-(terahydro-2H-pyran-4-yl)pyridin-4-yl)-4-methylphenyl)-2-(trifluoromethyl) pyrimidine-4-carboxamide] gave an IC50 of 0.3 nM.
`Cc1ccc(NC(=O)c2cc(Cl)ccn2)cc1-c1cc(OCCO)nc(C2CCOCC2)c1` [Example 261, 4-chloro-N-(3-(2-(2-hydroxyethoxy)-6-(tetrahydro-2H-pyran-4-yl)pyridin-4-yl)-4-methylphenyl) picolinamide] was tested, and the IC50 was 0.03 nM.
`Cc1ccc(NC(=O)c2cc(C(C)(C)C)nc(O)n2)cc1-c1cc(OCCO)nc(C2CCOCC2)c1` [Example 256, 6-(tert-butyl)-2-hydroxy-N-(3-(2-(2-hydroxyethoxy)-6-(tetrahydro-2H-pyran-4-yl)pyridin-4-yl)-4-methylphenyl)pyrimidine-4-carboxamide] showed an IC50 of 0.1 nM.
`Cc1ccc(NC(=O)c2cccc(C(F)(F)F)c2)cc1-c1cc(NCCO)nc(C2(O)COC2)c1` [Example 300, N-(3-(2-((2-hydroxyethyl)amino)-6-(3-hydroxyoxetan-3-yl)pyridin-4-yl)-4-methylphenyl)-3-(trifluoromethyl) benzamide] gave an IC50 of 0.1 nM.
Compound `Cc1ccc(NC(=O)c2cc3cnccc3nc2C(F)(F)F)cc1-c1cc(OCCO)nc(C2CCOCC2)c1` [Example 255, N-(3-(2-(2-hydroxyethoxy)-6-(terahydro-2H-pyran-4-yl)pyridin-4-yl)-4-methylphenyl)-2-(trifluoromethyl)-1,6-naphthyridine-3-carboxamide] has an IC50 of 0.2 nM.
`Cc1ncc(NC(=O)c2ccnc(C(C)(C)F)c2)cc1-c1cc(C2(F)COC2)cc(OCCO)n1` [Example 48] was tested, and the IC50 was 7.53 nM.
With `Cc1ncc(NC(=O)c2cccc(C(F)(F)F)c2)cc1-c1cc(N2CCOC2=O)nc(C2(O)CCOCC2)c1` [Example 301, N-(2′-(4-hydroxytetrahydro-2H-pyran-4-yl)-2-methyl-6′-(2-oxooxazolidin-3-yl)-[3,4′-bipyridin]-5-yl)-3-(trifluoromethyl) benzamide] the IC50 was 0.951 nM.
In the case of `Cc1ccc(NC(=O)c2ccnc(C(C)(C)F)c2)cc1-c1cc(C2(O)COC2)cc(C2(F)COC2)c1` [Example 137, N-(3′-(3-fluorooxetan-3-yl)-5′-(3-hydroxyoxetan-3-yl)-6-methyl-[1,1′-biphenyl]-3-yl)-2-(2-fluoropropan-2-yl)isonicotinamide], the IC50 is reported as 3.32 nM.
In the case of `Cc1ccc(NC(=O)c2ccnc(C(F)(F)F)c2)cc1-c1cc(C2CCOCC2)c(NC[C@@H](C)O)nn1` [Example 312, (R)-N-(3-(6-((2-hydroxypropyl)amino)-5-(tetrahydro-2H-pyran-4-yl)pyridazin-3-yl)-4-methylphenyl)-2-(trifluoromethyl) isonicotinamide], the IC50 is reported as 0.1 nM.
With `Cc1ccc(NC(=O)c2ccnc(C(C)(F)F)c2)cc1-c1cc(OCCO)nc(C2(CO)CCOCC2)c1` [Example 216, 2-(1,1-difluoroethyl)-N-(3-(2-(2-hydroxyethoxy)-6-(4-(hydroxymethyl)tetrahydro-2H-pyran-4-yl)pyridin-4-yl)-4-methylphenyl) isonicotinamide] the IC50 was 0.2 nM.
With `Cc1ccc(NC(=O)c2ccnc(C(F)(F)F)c2)cc1-c1cc(OCCO)nc(C2(O)CCOCC2)c1` [Example 305, N-(3-(2-(2-hydroxyethoxy)-6-(4-hydroxytetra-hydro-2H-pyran-4-yl)pyridin-4-yl)-4-methylphenyl)-2-(trifluoro-methyl) isonicotinamide] the IC50 was 0.331 nM.
In the case of `CCOc1ncc(-c2cc(NC(=O)c3cnnc(C(C)(C)C#N)c3)cnc2C)cc1C1CCOCC1` [Example 161], the IC50 is reported as 2 nM.
`Cc1ccc(NC(=O)c2cccc(C(F)(F)F)c2)cc1-c1cc(C2COC2)c2nccn2n1` [Example 6, N-(4-methyl-3-(8-(oxetan-3-yl)imidazo[1,2-b]pyridazin-6-yl)phenyl)-3-(trifluoromethyl)benzamide] gave an IC50 of 0.3 nM.
For `CCOc1ncc(-c2cc(NC(=O)c3cc(C(F)(F)F)cc(C(C)(C)N)n3)ccc2C)cc1C1(O)COC1` [Example 147, 6-(2-aminopropan-2-yl)-N-(3-(6-ethoxy-5-(3-hydroxyoxetan-3-yl)pyridin-3-yl)-4-methylphenyl)-4-(trifluoromethyl)picolin-amide], the IC50 was 4.51 nM.
For `Cc1ccc(NC(=O)c2ccnc(C#N)c2)cc1-c1cc(OCCO)nc(C2CCOCC2)c1` [Example 263, 2-cyano-N-(3-(2-(2-hydroxyethoxy)-6-(tetrahydro-2H-pyran-4-yl)pyridin-4-yl)-4-methylphenyl) isonicotinamide], the IC50 was 0.2 nM.
`Cc1ccc(NC(=O)c2cc(C(F)(F)F)ccn2)cc1-c1cc2c(c(C3CCOCC3)c1)OC(C)(CO)C(=O)N2` (stereo not drawn) [Example 202, N-(3-(2-(hydroxymethyl)-2-methyl-3-oxo-8-(tetrahydro-2H-pyran-4-yl)-3,4-dihydro-2H-benzo[b][1,4]oxazin-6-yl)-4-methylphenyl)-4-(trifluoromethyl) picolinamide] showed an IC50 of 0.3 nM.
Work on `CCOc1nnc(-c2cc(NC(=O)c3cnc(C(F)(F)F)cn3)ccc2C)cc1C1CCOCC1` [Example 230, N-(3-(6-ethoxy-5-(tetrahydro-2H-pyran-4-yl)pyridazin-3-yl)-4-methylphenyl)-5-(trifluoromethyl) pyrazine-2-carboxamide] yielded an IC50 of 11 nM.
Work on `Cc1ccc(NC(=O)c2ccnc(C(F)(F)F)c2)cc1-c1cc(OCCO)nc(C2(C)CCOCC2)c1` [Example 205, N-(3-(2-(2-hydroxyethoxy)-6-(4-methyltetrahydro-2H-pyran-4-yl)pyridin-4-yl)-4-methylphenyl)-2-(trifluoromethyl) isonicotinamide] yielded an IC50 of 0.4 nM.
In the case of `CCOc1ncc(-c2cc(NC(=O)c3ccnc(C(C)(C)C#N)c3)ccc2C)cc1C1(CF)CCOC1` (stereo not drawn) [Example 288, 2-(2-cyanopropan-2-yl)-N-(3-(6-ethoxy-5-(3-(fluoromethyl)tetrahydrofuran-3-yl)pyridin-3-yl)-4-methylphenyl)isonicotinamide], the IC50 is reported as 0.6 nM.
`CCOc1nnc(-c2cc(NC(=O)c3cnnc(C(F)(F)F)c3)ccc2C)cc1C1CCOCC1` [Example 237, N-(5-(6-ethoxy-5-(tetrahydro-2H-pyran-4-yl)pyridazin-3-yl)-4-methylphenyl)-6-(trifluoromethyl) pyridazine-4-carboxamide] showed an IC50 of 0.1 nM.
Work on `COc1ncc(-c2cc(NC(=O)c3cc(C(F)(F)F)cc(C(C)(C)N)n3)ccc2C)cc1C1(C(F)F)COC1` [Example 149, 6-(2-aminopropan-2-yl)-N-(3-(5-(3-(difluoromethyl)oxetan-3-yl)-6-methoxypyridin-3-yl)-4-methylphenyl)-4-(trifluoromethyl)picolin-amide] yielded an IC50 of 0.871 nM.
Compound `COC1(c2cc(-c3cc(NC(=O)c4cccc(C(F)(F)F)c4)cnc3C)cc(NCCO)n2)COC1` [Example 152, N-(2′-((2-hydroxyethyl)amino)-6′-(3-methoxyoxetan-3-yl)-2-methyl-[3,4′-bipyridin]-5-yl)-3-(trifluoromethyl)benzamide] has an IC50 of 0.08 nM.
With `Cc1ncc(NC(=O)c2ccnc(C(F)(F)F)c2)cc1-c1cc(NCCO)nc(C2CCOCC2)c1` [Example 181, N-(2′-((2-hydroxyethyl)amino)-2-methyl-6′-(tetrahydro-2H-pyran-4-yl)-[3,4′-bipyridin]-5-yl)-2-(trifluoromethyl) isonicotinamide] the IC50 was 0.393 nM.
